Laboratory results taken from paper PMC6246635 (Frontiers in Physiology, 2018).

Columns and labels:
[1] = test system: mouse ventricular cardiomyocytes; assay: Ca2+ transient (CaT) measurement; type: cell-based; details: 2 μM, 2 h, 1 Hz
Description: (§1) Cardiomyocytes were isolated from adult mice (14–18 weeks old, either sex). The experimental procedure and number of used animals were approved by the ethics committee of the Federal Ministry of Science, Research and Economy of the Republic of Austria (BMWF-66.010/0038-V/3b/2018). Mice were euthanized (40 mg/kg ketamine and 10 mg/kg xylazine), hearts were quickly removed and cardiomyocytes were isolated as previously described ([Ackers-Johnson et al., 2016]) using collagenase 2 and 4 (Worthington Biochemical Corporation, NJ, United States). After isolation cardiomyocytes were kept in standard external solution (containing in mM: NaCl 137, KCl 5.4, CaCl2 1.8, MgCl2 1.1, NaHCO3 2.2, NaH2PO4 0.4, HEPES/Na^+ 10, D(+)-glucose 5.6, pH 7.4 adjusted with NaOH). All experiments were performed on the day of isolation.
CaT was assessed by field stimulation (platinum electrode distance: 1 cm; pulse duration: 5 ms; suprathreshold pulse amplitude: 4 V/cm) at a frequency of 1 Hz using a video-based sarcomere length detection system (IonOptix Corporation, MA, United States) at 37°C. Fluorescence intensities were measured at 340 and 380 nm of excitation and at 510 nm of emission wavelengths using a dual excitation light source. The F340/F380 ratio was used as an index of cytosolic Ca^2+ concentration and to calculate CaT relaxation tau (τCaT). Data were analyzed using Clampfit 10.2 (Molecular Devices) and LabChart 7.0 (peak analysis module, ADInstruments Ltd., Oxford, United Kingdom).

[2] = test system: CaMKII and PLB; assay: Western blot total CaMKII and PLB expression; type: cell-based, murine; details: HL-1 cells, 2 μM, time course
Description: (§2) HL-1 cells (a murine cardiomyocyte cell line, Sigma-Aldrich, Vienna, Austria) were cultured in fibronectin (0.5% [w/v])/gelatin (0.02% [w/v]) coated flasks and maintained in Claycomb medium (Sigma-Aldrich) ([Claycomb et al., 1998]) containing 10% (v/v) fetal bovine serum (FBS, Thermo Fisher Scientific, IL, United States), 0.1 mM norepinephrine, 2 mM L-glutamine, 100 IU/ml penicillin and 100 μg/ml streptomycin (Sigma-Aldrich), and kept at 37°C under 5% CO2, as previously described ([Scheruebel et al., 2014]).
HL-1 cells or mouse left ventricle (LV) were lysed in ice-cold lysis buffer (containing in mM: HEPES 50, NaCl 150, EDTA 1, Na4P2O7 10, Na3VO4 2, NaF 10, 1% [v/v] Triton X-100, 10% [v/v] glycerol, pH 7.4, Sigma-Aldrich) containing a Protease Phosphatase Inhibitor Cocktail (Thermo Fisher Scientific). Pellets were separated by centrifugation at 13,000 rpm (4°C, 10 min). Protein estimation of whole cell was performed using BCA protein assay kit (Thermo Fisher Scientific). Whole cell protein lysates (50 μg) were added to 10 μl of NuPAGE LDS sample buffer (Invitrogen) containing 2 μl of NuPAGE sample reducing agent (Invitrogen). After heating for 10 min at 70°C, proteins were separated by electrophoresis on NuPAGE 4–12% Bis-Tris gel (Invitrogen) and transferred to nitrocellulose membranes (Invitrogen, 0.2 μm) ([Jain et al., 2015]). […]

[3] = test system: PKC; assay: PKC activity assay in HL-1 cells; type: cell-based, murine
Description: as §2
(§3) HL-1 cells were transfected with siRNAs (four different constructs) specific for DPP8 or DPP9 (40 nM each, Qiagen), or scrambled negative control siRNA (40 nM si-scr; Allstars negative control siRNA, Qiagen) ([Koyani et al., 2014]). The siRNA transfection was performed using Lipofectamine 3000 (Invitrogen) according to the supplier’s manual. Briefly, HL-1 (50% confluent) were transfected with 1 ml medium (composition of medium is given above, without FBS and antibiotics) containing 2 μl of Lipofectamine 3000 and the respective siRNA for 6 h at 37°C. Transfection medium was replaced with medium (containing FBS and antibiotics) and cells were grown for another 24 h. The mRNA expression levels of silenced genes were measured using qPCR (see above).
Estimation of active PKC was performed using a PKC kinase activity kit (ADI-EKS-420A, Enzo Life Sciences, NY, United States) according to the manufacturer’s protocol.

[4] = test system: DPP8; design: method as in Lankas et al., 2005; details: ref Lankas et al., 2005; cited from earlier work
[5] = test system: PLB; assay: Western blot pPLB (T17); type: cell-based, murine; details: HL-1 cells
Description: as §2
(§4) HL-1 cells or mouse left ventricle (LV) were lysed in ice-cold lysis buffer (containing in mM: HEPES 50, NaCl 150, EDTA 1, Na4P2O7 10, Na3VO4 2, NaF 10, 1% [v/v] Triton X-100, 10% [v/v] glycerol, pH 7.4, Sigma-Aldrich) containing a Protease Phosphatase Inhibitor Cocktail (Thermo Fisher Scientific). Pellets were separated by centrifugation at 13,000 rpm (4°C, 10 min). Protein estimation of whole cell was performed using BCA protein assay kit (Thermo Fisher Scientific). Whole cell protein lysates (50 μg) were added to 10 μl of NuPAGE LDS sample buffer (Invitrogen) containing 2 μl of NuPAGE sample reducing agent (Invitrogen). After heating for 10 min at 70°C, proteins were separated by electrophoresis on NuPAGE 4–12% Bis-Tris gel (Invitrogen) and transferred to nitrocellulose membranes (Invitrogen, 0.2 μm) ([Jain et al., 2015]). Membranes were blocked with 5% (w/v) non-fat milk in Tris-buffered saline containing Tween 20 (TBST, 25°C, 2 h) and incubated with primary antibodies overnight at 4°C. The following primary antibodies (diluted in 5% [w/v] BSA-TBST) were used: phospho-CaMKII (pCaMKII, T286, 1:1000, Abcam, ab32678), phospho-PLB (pPLB, T17, 1:5000, Badrilla, A010-13), DPP8 (1:500, Santa Cruz, sc-376399), DPP9 (1:500, Santa Cruz, sc-271634), CaMKII (1:500, Santa Cruz, sc-9035), and PLB (1:2000, Thermo Fisher Scientific, MA3-922). After washing, the membranes were incubated with HRP-conjugated goat anti-mouse IgG (1:10,000, Cell Signaling, 7076) or goat anti-rabbit IgG (1:10,000, Cell Signaling, 7074) (25°C, 2 h). Immunoreactive bands were visualized using Immobilon Western Chemiluminescent HRP substrate (Merck Millipore, Vienna, Austria) and developed by Bio-Rad ChemiDoc MP Imaging System. For normalization, membranes were stripped with stripping buffer (58.4 g/l NaCl, 7.5 g/l glycine, pH 2.15), blocked and incubated with a primary antibody against glyceraldehyde 3-phosphate dehydrogenase (GAPDH, 1:1000, Santa Cruz, sc-25778). Densitometric evaluation of immunoreactive bands was performed using Image Lab 4.1 software.
as §3

[6] = test system: CaMKII; assay: Western blot pCaMKII (T286); type: cell-based, murine; details: HL-1 cells
Description: as §2, §4, §3

[7] = test system: DPP9; design: method as in Lankas et al., 2005; details: ref Lankas et al., 2005; cited from earlier work
[8] = design: method as in Udenfriend et al., 1972; details: unbound, aqueous solution; ref Udenfriend et al., 1972; cited from earlier work
[9] = design: method as in Koyani et al., 2017; Lee et al., 2016; He et al., 2009; details: in vitro studies; ref Koyani et al., 2017; Lee et al., 2016; He et al., 2009; cited from earlier work
[10] = test system: PKC; design: method as in Dai et al., 2014; details: THP-1 macrophages; ref Dai et al., 2014; cited from earlier work
[11] = test system: mouse ventricular cardiomyocytes; assay: patch clamp action potential recording; type: cell-based; details: 2 μM, 5 min superfusion, 1 Hz
Description: as §1
Action potentials (APs) were recorded in the whole cell configuration of the patch clamp technique using Axopatch 200B amplifier (Molecular Devices, CA, United States) and the A/D – D/A converters Digidata 1322A (Molecular Devices). […] Ten consecutive APs were analyzed using LabChart 7.0 (Cardiac action potential analysis module, ADInstruments Ltd., Oxford, United Kingdom).

[12] = design: method as in Onglyza, 2016; details: 5 mg single dose; ref Onglyza, 2016; cited from earlier work
[13] = plasma Cmax after single dose; type: in vivo; details: human, 5 mg single dose, equivalent of 24 ng/ml (Onglyza, 2016), read-out: plasma Cmax, molar equivalent
[14] = test system: HL-1 cardiomyocytes; assay: fluorescence microscopy of fluorescamine adduct uptake; type: cell-based, murine; details: HL-1 cells, drug-fluorescamine 2–2 μM
Description: as §2, with “2014]). […] Fluorescence images were captured at excitation/emission wavelengths of 390/470 nm.” for “2014]).”

[15] = test system: PKC; design: method as in Hasegawa et al., 2016; details: human endothelial cells; ref Hasegawa et al., 2016; cited from earlier work
[16] = design: method as in Green et al., 2015; details: TECOS trial, T2DM patients; ref Green et al., 2015; cited from earlier work

In the case of `CC[C@@H](C)[C@H](N)C(=O)N1Cc2ccccc2C1.Cl` [TC-E 5007], the “CaT relaxation (reciprocal of τCaT)” value [1] is reported as “impaired cardiac relaxation”, the “total CaMKII and PLB protein levels” value [2] is reported as “did not affect” and the “reduced PKC activity, time from which observed” value ([3]; 2 μM) is reported as no less than 10 min. The IC50 [4] was […], the “reduced pPLB (T17), time from which observed” value ([5]; 2 μM) was no less than 60 min and the “reduced CaMKII phosphorylation (T286), time from which observed” value ([6]; 2 μM) was no less than 30 min. The IC50 [7] was […].
For `O=C1OC2(OC=C(c3ccccc3)C2=O)c2ccccc21` (stereo not shown) [fluorescamine], the half-life [8] is given as 5 to 10 s.
In the case of `N#C[C@@H]1C[C@@H]2C[C@@H]2N1C(=O)[C@@H](N)C12CC3CC(CC(O)(C3)C1)C2` [saxagliptin], the membrane permeability [9] is listed as “significant membrane permeability”, the “CaT relaxation (reciprocal of τCaT)” value [1] is listed as “impaired cardiac relaxation” and the “oxidized low-density lipoprotein-induced pPKC levels” value [10] is listed as “inhibited”. The “reduced PKC activity, time from which observed” value ([3]; 2 μM) was no less than 2.5 min, the “efficacy on PKC activity in DPP8/DPP9 silenced cardiomyocytes” value ([3]; 2 μM, 10 min) was “significantly abolished in DPP9 (but not DPP8) silenced cardiomyocytes” and the “reduced PKC activity, concentration from which observed” value ([3]; 10 min) was no less than 1 µM. The “action potential duration (APD, 90% repolarization)” value [11] was “prolongation of APD”, the “plasma Cmax” value [12] was 24 ng/mL and the Cmax [13] was roughly 76 nM. The “reduced pPLB (T17), time from which observed” value ([5]; 2 μM) was no less than 15 min, the “efficacy on pPLB expression in DPP8/DPP9 silenced cells” value ([5]; 2 μM, 30 min) was “abolished in DPP9 (but not DPP8) silenced cells” and the “reduced pPLB expression, concentration from which observed” value ([5]; 30 min) was no less than 200 nM. The “reduced CaMKII phosphorylation (T286), time from which observed” value ([6]; 2 μM) was no less than 2.5 min, the “pCaMKII expression in DPP8 knocked down cardiomyocytes” value ([6]; 2 μM, 5 min, si-DPP8) was “effectively inhibited” and the “inhibition of CaMKII phosphorylation, concentration from which observed” value ([6]; 5 min) was no less than 200 nM.
For `N[C@@H](CC(=O)N1CCn2c(nnc2C(F)(F)F)C1)Cc1cc(F)c(F)cc1F` [sitagliptin], the “cellular uptake and localization (fluorescence)” value [14] is listed as “internalized by cardiomyocytes and localizes in the cytosol”, the membrane permeability [9] is listed as “significant membrane permeability” and the “CaT relaxation (reciprocal of τCaT)” value [1] is listed as “ineffective”. For the same molecule, the “effect on intracellular PKC activity” value ([3]; time course (2 μM) and concentration series (10 min)) was “no effect”, the “action potential duration (APD, 90% repolarization)” value [11] was “not” and the “effect on PLB phosphorylation levels” value ([5]; time course (2 μM) and concentration series (30 min)) was “neither time- (Figure 2F) nor concentration-dependent experiments (Figure 2H) showed an effect”. For the same molecule, the “effect on PKC activity” value [15] was “ineffective”, the “effect on the hospitalization of HF” value [16] was “did not show any effect” and the “effect on pCaMKII expression, time course” value ([6]; 2 μM) was “failed to inhibit”. For the same molecule, the “effect on CaMKII phosphorylation, concentration-dependent” value ([6]; up to 10 μM, 5 min) was “no effect”.
In the case of `N#C[C@@H]1CCCN1C(=O)CNC12CC3CC(CC(O)(C3)C1)C2` [vildagliptin], the membrane permeability [9] is given as “significant membrane permeability”.
